Results reported in patent publication US12138263B2, “Pyrazolo[3,4-b]pyrazine SHP2 phosphatase inhibitors and methods of use thereof” (Relay Therapeutics, Inc., priority 2018, dated 2024).

Target: SHP2 (Homo sapiens (Human), UniProt Q06124)
Assay: SHP2 allosteric inhibition assay (DiFMUP prompt fluorescence)
Format: biochemical
Conditions: Table 3; 0.25 nM SHP2 with 0.5 μM peptide IRS1_pY1172(dPEG8)pY1222, substrate DiFMUP 100 μM

Sequence of SHP2 (Q06124 whole entry): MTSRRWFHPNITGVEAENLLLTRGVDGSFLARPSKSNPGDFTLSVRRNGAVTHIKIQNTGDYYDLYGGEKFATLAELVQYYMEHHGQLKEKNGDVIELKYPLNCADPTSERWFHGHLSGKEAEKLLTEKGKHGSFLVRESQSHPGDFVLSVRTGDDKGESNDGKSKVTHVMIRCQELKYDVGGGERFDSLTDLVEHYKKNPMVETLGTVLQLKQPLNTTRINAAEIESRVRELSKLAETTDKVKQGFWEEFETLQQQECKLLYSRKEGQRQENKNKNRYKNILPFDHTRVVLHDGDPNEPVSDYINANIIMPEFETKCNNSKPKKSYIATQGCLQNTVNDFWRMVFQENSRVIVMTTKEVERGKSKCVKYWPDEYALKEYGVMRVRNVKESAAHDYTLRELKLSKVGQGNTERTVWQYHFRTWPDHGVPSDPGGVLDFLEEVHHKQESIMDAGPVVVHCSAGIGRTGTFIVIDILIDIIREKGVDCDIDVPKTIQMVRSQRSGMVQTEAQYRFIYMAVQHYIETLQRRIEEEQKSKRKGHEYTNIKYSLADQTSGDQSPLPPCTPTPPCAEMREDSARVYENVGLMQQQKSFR

SMILES	IC50
C[C@@H]1OCC2(CCN(c3nc4[nH]nc(N5CCCc6nc(-c7ccn[nH]7)ccc65)c4nc3CO)CC2)[C@@H]1N [Compound 20C, (3-(6-(1H-pyrazol-5-yl)-3,4-dihydro-1,5-naphthyridin-1(2H)-yl)-6-((3S,4S)-4-amino-3-methyl-2-oxa-8-azaspiro[4.5]decan-8-yl)-1H-pyrazolo[3,4-b]pyrazin-5-yl)methanol]	< 1 µM
COC1CC(N2CCN(c3n[nH]c4nc(N5CCC6(CC5)CO[C@@H](C)[C@H]6N)c(CO)nc34)c3ccc(C#N)cc32)C1 (some centres unmarked) [Compound 21C]	< 1 µM
C[C@@H]1OCC2(CCN(c3nc4[nH]nc(-c5cccc6ncccc56)c4nc3CO)CC2)[C@@H]1N [Compound 22C, (6-((3S,4S)-4-amino-3-methyl-2-oxa-8-azaspiro[4.5]decan-8-yl)-3-(quinolin-5-yl)-1H-pyrazolo[3,4-b]pyrazin-5-yl)methanol]	< 1 µM
CC(=O)N1CCN(c2n[nH]c3nc(N4CCC5(CC4)CO[C@@H](C)[C@H]5N)c(CO)nc23)c2ccccc21 [Compound 23C]	< 1 µM
C[C@@H]1OCC2(CCN(c3nc4[nH]nc(-c5ccc6occc6c5)c4nc3CO)CC2)[C@@H]1N [Compound 24C]	< 1 µM
